# Data reported in the kinase profiling compilation of Christmann-Franck et al. (2016).
# How the values were obtained:
# Assay in all cases: KINOMEscan competition binding
# Details in all cases: compound 10.0 µM
# ITK (human) = ITK (human) (UniProt Q08881)
# [1] = system: FGFR3 (human), P22607 [G697C]
# [2] = system: FLT3 (human), P36888 [D835Y]
# ABL1 (human) = ABL1 (human) (UniProt P00519)
# PLK3 (human) = PLK3 (human) (UniProt Q9H4B4)
# MAPK13 (human) = MAPK13 (human) (UniProt O15264)
# RIOK3 (human) = RIOK3 (human) (UniProt O14730)
# NTRK2 (human) = NTRK2 (human) (UniProt Q16620)
# LIMK1 (human) = LIMK1 (human) (UniProt P53667)
# TSSK1B (human) = TSSK1B (human) (UniProt Q9BXA7)
# HIPK4 (human) = HIPK4 (human) (UniProt Q8NE63)
# [3] = system: PIK3CA (human), P42336 [C420R]
# STK16 (human) = STK16 (human) (UniProt O75716)
# CSF1R (human) = CSF1R (human) (UniProt P07333)
# MAP2K3 (human) = MAP2K3 (human) (UniProt P46734)
# BMP2K (human) = BMP2K (human) (UniProt Q9NSY1)
# PRKCQ (human) = PRKCQ (human) (UniProt Q04759)
# RPS6KA5 KD2 (human) = RPS6KA5 KD2 (human) (UniProt O75582)
# EPHA2 (human) = EPHA2 (human) (UniProt P29317)
# MAP4K4 (human) = MAP4K4 (human) (UniProt O95819)
# PAK1 (human) = PAK1 (human) (UniProt Q13153)
# ULK3 (human) = ULK3 (human) (UniProt Q6PHR2)
# ERBB3 (human) = ERBB3 (human) (UniProt P21860)
# MAPK4 (human) = MAPK4 (human) (UniProt P31152)
# RIOK1 (human) = RIOK1 (human) (UniProt Q9BRS2)
# MERTK (human) = MERTK (human) (UniProt Q12866)
# RPS6KA5 KD1 (human) = RPS6KA5 KD1 (human) (UniProt O75582)
# PDGFRB (human) = PDGFRB (human) (UniProt P09619)
# PTK6 (human) = PTK6 (human) (UniProt Q13882)
# MAP3K2 (human) = MAP3K2 (human) (UniProt Q9Y2U5)
# MAP2K1 (human) = MAP2K1 (human) (UniProt Q02750)
# LTK (human) = LTK (human) (UniProt P29376)
# CSK (human) = CSK (human) (UniProt P41240)
# CAMK2A (human) = CAMK2A (human) (UniProt Q9UQM7)
# [4] = target: JAK2 JH1 catalytic (human) (UniProt O60674)
# GRK7 (human) = GRK7 (human) (UniProt Q8WTQ7)
# NUAK2 (human) = NUAK2 (human) (UniProt Q9H093)
# [5] = system: PIK3CA (human), P42336 [E545A]
# KIT (human) = KIT (human) (UniProt P10721)
# ERN1 (human) = ERN1 (human) (UniProt O75460)
# [6] = system: FLT3 (human), P36888 [ITD]
# CSF1R (human), sequence (P07333 whole entry, looked up): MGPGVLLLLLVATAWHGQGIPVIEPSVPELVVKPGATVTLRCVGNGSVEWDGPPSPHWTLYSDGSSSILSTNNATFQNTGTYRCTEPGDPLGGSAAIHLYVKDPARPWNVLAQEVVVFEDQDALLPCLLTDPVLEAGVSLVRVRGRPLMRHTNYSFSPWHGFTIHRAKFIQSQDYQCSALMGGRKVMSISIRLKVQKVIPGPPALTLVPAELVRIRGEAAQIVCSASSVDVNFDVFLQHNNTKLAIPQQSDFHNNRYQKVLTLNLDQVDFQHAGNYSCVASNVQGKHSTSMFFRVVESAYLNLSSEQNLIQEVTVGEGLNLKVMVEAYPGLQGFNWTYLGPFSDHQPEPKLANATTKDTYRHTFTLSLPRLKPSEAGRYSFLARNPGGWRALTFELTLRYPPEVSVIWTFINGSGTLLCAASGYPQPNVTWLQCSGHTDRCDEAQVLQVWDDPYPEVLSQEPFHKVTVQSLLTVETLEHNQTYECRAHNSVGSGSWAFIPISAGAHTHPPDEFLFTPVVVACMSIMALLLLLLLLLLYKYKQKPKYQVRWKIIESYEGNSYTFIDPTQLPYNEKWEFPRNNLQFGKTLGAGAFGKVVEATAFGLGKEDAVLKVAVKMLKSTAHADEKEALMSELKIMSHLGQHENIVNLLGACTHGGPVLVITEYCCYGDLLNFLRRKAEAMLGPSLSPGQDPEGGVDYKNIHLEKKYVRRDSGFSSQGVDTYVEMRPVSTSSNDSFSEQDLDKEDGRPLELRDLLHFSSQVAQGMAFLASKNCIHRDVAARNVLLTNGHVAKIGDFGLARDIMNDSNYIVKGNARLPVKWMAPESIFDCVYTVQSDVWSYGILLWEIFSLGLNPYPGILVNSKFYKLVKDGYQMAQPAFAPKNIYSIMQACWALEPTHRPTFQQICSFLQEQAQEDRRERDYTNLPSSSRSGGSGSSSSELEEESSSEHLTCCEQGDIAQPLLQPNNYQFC
# ERBB3 (human), sequence (P21860 whole entry, looked up): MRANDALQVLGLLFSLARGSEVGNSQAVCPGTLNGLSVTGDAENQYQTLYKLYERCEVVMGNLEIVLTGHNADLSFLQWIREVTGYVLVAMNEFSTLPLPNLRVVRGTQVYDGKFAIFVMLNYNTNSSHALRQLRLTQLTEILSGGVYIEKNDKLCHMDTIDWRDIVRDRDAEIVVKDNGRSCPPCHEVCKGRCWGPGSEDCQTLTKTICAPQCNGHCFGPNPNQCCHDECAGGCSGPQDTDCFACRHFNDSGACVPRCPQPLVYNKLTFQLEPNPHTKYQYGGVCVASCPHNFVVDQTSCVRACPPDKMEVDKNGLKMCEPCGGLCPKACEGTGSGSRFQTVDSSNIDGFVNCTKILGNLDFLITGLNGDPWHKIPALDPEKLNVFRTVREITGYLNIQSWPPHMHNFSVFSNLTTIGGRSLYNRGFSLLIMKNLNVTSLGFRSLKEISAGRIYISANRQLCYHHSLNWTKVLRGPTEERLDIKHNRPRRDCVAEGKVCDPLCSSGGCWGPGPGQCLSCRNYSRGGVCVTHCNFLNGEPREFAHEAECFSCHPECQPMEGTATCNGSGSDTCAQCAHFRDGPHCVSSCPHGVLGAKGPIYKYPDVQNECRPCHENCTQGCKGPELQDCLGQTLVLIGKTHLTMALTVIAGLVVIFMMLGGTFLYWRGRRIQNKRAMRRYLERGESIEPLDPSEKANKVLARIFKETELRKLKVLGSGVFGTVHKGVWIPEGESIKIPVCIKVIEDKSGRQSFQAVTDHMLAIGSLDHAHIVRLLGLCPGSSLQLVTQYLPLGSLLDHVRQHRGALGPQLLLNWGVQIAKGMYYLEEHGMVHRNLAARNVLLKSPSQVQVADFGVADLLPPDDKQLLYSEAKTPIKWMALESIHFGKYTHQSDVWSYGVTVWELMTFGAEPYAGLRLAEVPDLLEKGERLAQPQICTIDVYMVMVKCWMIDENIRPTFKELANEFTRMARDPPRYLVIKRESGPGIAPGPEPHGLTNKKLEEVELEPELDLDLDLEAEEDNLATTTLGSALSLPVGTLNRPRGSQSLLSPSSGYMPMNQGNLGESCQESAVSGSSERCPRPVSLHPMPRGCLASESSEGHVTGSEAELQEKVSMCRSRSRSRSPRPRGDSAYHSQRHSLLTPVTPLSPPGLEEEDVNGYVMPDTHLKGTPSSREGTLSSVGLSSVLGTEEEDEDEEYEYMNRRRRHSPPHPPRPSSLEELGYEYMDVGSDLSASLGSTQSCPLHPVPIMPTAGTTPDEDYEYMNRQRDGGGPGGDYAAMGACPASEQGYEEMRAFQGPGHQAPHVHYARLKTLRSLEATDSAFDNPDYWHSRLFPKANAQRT
# PDGFRB (human), sequence (P09619 whole entry, looked up): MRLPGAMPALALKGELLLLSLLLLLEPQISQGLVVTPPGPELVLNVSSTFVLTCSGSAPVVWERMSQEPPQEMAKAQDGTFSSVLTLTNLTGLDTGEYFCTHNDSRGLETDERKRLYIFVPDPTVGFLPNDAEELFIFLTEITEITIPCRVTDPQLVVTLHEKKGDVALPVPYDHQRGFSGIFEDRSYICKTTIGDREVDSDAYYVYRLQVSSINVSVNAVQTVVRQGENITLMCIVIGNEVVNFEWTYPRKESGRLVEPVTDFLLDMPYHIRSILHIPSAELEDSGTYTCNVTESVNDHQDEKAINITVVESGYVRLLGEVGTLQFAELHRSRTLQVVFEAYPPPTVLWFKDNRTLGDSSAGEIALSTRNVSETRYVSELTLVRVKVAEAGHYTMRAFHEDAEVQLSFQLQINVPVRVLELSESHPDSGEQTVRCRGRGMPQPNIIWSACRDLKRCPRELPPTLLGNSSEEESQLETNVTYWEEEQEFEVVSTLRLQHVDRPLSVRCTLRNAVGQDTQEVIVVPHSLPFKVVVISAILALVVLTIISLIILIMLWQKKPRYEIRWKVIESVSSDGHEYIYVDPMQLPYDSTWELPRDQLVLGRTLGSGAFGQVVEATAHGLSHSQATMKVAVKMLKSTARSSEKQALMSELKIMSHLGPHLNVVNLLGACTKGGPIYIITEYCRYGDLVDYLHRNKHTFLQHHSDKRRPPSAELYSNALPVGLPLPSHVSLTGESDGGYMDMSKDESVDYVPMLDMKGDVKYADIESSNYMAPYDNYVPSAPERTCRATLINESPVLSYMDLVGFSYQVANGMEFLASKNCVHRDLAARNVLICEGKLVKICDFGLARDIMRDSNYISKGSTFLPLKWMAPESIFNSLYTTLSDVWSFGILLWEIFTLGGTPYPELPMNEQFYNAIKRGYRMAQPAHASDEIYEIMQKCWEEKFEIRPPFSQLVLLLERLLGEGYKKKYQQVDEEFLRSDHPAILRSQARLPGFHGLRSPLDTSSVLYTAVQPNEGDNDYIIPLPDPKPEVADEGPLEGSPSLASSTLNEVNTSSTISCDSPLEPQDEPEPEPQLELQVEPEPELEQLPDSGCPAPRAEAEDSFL
# PIK3CA (human), P42336 [E545A], sequence (P42336 whole entry E545A, looked up): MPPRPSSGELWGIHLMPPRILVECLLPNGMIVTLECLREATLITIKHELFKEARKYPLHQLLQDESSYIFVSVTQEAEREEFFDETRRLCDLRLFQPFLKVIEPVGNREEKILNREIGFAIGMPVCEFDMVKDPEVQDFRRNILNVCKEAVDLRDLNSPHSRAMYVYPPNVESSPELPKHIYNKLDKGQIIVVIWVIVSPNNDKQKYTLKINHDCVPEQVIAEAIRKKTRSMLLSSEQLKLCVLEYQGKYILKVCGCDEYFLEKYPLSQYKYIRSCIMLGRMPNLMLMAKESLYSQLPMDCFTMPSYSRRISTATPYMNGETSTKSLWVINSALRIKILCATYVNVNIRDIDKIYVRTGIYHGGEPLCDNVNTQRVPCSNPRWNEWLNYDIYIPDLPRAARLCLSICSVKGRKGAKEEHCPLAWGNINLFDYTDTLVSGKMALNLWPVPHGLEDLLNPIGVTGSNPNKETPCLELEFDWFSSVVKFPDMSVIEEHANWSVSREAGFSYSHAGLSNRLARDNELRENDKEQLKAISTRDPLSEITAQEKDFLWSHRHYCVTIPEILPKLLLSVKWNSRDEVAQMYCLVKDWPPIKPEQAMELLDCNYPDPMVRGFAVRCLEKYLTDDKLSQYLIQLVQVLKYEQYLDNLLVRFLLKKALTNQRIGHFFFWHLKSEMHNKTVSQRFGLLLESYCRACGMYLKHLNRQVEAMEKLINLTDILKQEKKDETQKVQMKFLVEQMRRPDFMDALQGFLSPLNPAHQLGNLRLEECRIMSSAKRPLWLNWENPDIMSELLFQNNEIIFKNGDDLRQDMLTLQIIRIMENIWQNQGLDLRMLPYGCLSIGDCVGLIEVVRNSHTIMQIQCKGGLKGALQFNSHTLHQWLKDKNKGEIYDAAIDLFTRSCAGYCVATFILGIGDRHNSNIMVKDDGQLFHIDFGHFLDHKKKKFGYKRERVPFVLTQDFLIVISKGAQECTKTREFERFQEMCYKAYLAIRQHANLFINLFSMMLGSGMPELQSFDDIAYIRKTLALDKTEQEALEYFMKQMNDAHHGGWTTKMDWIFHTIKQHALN
# RIOK3 (human), sequence (O14730 whole entry, looked up): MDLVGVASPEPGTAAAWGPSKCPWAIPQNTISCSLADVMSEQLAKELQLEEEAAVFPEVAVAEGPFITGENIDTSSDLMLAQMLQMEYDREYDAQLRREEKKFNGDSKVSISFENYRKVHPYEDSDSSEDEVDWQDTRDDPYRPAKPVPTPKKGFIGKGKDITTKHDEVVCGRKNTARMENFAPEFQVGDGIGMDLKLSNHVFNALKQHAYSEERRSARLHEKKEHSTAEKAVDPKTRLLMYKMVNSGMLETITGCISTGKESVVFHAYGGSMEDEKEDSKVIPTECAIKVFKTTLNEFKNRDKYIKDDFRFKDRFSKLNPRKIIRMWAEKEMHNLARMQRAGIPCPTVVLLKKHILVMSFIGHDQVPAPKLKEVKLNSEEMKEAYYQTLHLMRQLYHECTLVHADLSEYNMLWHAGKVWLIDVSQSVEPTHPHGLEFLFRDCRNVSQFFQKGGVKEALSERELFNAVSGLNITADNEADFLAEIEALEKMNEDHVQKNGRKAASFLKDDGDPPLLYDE
# PIK3CA (human), P42336 [C420R], sequence (P42336 whole entry C420R, looked up): as the sequence (P42336 whole entry E545A, looked up) above, with C420R, A545E counted along it
smiles,measurement,setting,value
COc1ccc(CNC(=O)Nc2ncc([N+](=O)[O-])s2)cc1,"kinase still bound, per cent of control",ITK (human),95%
same,"kinase still bound, per cent of control",[1],100%
same,"kinase still bound, per cent of control",[2],86%
same,"kinase still bound, per cent of control",ABL1 (human),100%
same,"kinase still bound, per cent of control",PLK3 (human),100%
same,"kinase still bound, per cent of control",MAPK13 (human),94%
same,"kinase still bound, per cent of control",RIOK3 (human),86%
same,"kinase still bound, per cent of control",NTRK2 (human),81%
same,"kinase still bound, per cent of control",LIMK1 (human),100%
same,"kinase still bound, per cent of control",TSSK1B (human),91%
same,"kinase still bound, per cent of control",HIPK4 (human),49%
same,"kinase still bound, per cent of control",[3],95%
same,"kinase still bound, per cent of control",STK16 (human),28%
same,"kinase still bound, per cent of control",CSF1R (human),97%
same,"kinase still bound, per cent of control",MAP2K3 (human),100%
same,"kinase still bound, per cent of control",BMP2K (human),100%
same,"kinase still bound, per cent of control",PRKCQ (human),100%
same,"kinase still bound, per cent of control",RPS6KA5 KD2 (human),100%
same,"kinase still bound, per cent of control",EPHA2 (human),95%
same,"kinase still bound, per cent of control",MAP4K4 (human),92%
same,"kinase still bound, per cent of control",PAK1 (human),94%
same,"kinase still bound, per cent of control",ULK3 (human),95%
same,"kinase still bound, per cent of control",ERBB3 (human),73%
same,"kinase still bound, per cent of control",MAPK4 (human),100%
same,"kinase still bound, per cent of control",RIOK1 (human),100%
same,"kinase still bound, per cent of control",MERTK (human),100%
same,"kinase still bound, per cent of control",RPS6KA5 KD1 (human),100%
same,"kinase still bound, per cent of control",PDGFRB (human),88%
same,"kinase still bound, per cent of control",PTK6 (human),92%
same,"kinase still bound, per cent of control",MAP3K2 (human),96%
same,"kinase still bound, per cent of control",MAP2K1 (human),100%
same,"kinase still bound, per cent of control",LTK (human),100%
same,"kinase still bound, per cent of control",CSK (human),100%
same,"kinase still bound, per cent of control",CAMK2A (human),100%
same,"kinase still bound, per cent of control",[4],100%
same,"kinase still bound, per cent of control",GRK7 (human),100%
same,"kinase still bound, per cent of control",NUAK2 (human),93%
same,"kinase still bound, per cent of control",[5],94%
same,"kinase still bound, per cent of control",KIT (human),100%
same,"kinase still bound, per cent of control",ERN1 (human),100%
Cc1cnc(-c2cnc(NCCNc3ccc(C#N)cn3)nc2-c2ccc(Cl)cc2Cl)[nH]1,"kinase still bound, per cent of control",ITK (human),100%
same,"kinase still bound, per cent of control",[1],100%
same,"kinase still bound, per cent of control",[2],46%
same,"kinase still bound, per cent of control",ABL1 (human),96%
same,"kinase still bound, per cent of control",PLK3 (human),80%
same,"kinase still bound, per cent of control",MAPK13 (human),100%
same,"kinase still bound, per cent of control",RIOK3 (human),100%
same,"kinase still bound, per cent of control",NTRK2 (human),100%
same,"kinase still bound, per cent of control",LIMK1 (human),100%
same,"kinase still bound, per cent of control",TSSK1B (human),94%
same,"kinase still bound, per cent of control",[6],74%
same,"kinase still bound, per cent of control",HIPK4 (human),43%
same,"kinase still bound, per cent of control",[3],100%
same,"kinase still bound, per cent of control",STK16 (human),91%
same,"kinase still bound, per cent of control",CSF1R (human),90%
same,"kinase still bound, per cent of control",MAP2K3 (human),87%
same,"kinase still bound, per cent of control",BMP2K (human),99%
same,"kinase still bound, per cent of control",PRKCQ (human),100%
same,"kinase still bound, per cent of control",RPS6KA5 KD2 (human),100%
same,"kinase still bound, per cent of control",EPHA2 (human),96%
same,"kinase still bound, per cent of control",PAK1 (human),100%
same,"kinase still bound, per cent of control",ULK3 (human),100%
same,"kinase still bound, per cent of control",ERBB3 (human),73%
same,"kinase still bound, per cent of control",MAPK4 (human),100%
same,"kinase still bound, per cent of control",RIOK1 (human),100%
same,"kinase still bound, per cent of control",MERTK (human),100%
same,"kinase still bound, per cent of control",RPS6KA5 KD1 (human),98%
same,"kinase still bound, per cent of control",PDGFRB (human),74%
same,"kinase still bound, per cent of control",PTK6 (human),100%
same,"kinase still bound, per cent of control",MAP3K2 (human),93%
same,"kinase still bound, per cent of control",MAP2K1 (human),100%
same,"kinase still bound, per cent of control",LTK (human),100%
same,"kinase still bound, per cent of control",CSK (human),100%
same,"kinase still bound, per cent of control",CAMK2A (human),89%
same,"kinase still bound, per cent of control",[4],100%
same,"kinase still bound, per cent of control",GRK7 (human),91%
same,"kinase still bound, per cent of control",NUAK2 (human),94%
same,"kinase still bound, per cent of control",[5],100%
same,"kinase still bound, per cent of control",KIT (human),100%
same,"kinase still bound, per cent of control",ERN1 (human),100%
Cn1cc(C2=C(c3ccc(Cl)cc3Cl)C(=O)NC2=O)c2ccccc21,"kinase still bound, per cent of control",ITK (human),100%
same,"kinase still bound, per cent of control",[1],100%
same,"kinase still bound, per cent of control",[2],16%
same,"kinase still bound, per cent of control",ABL1 (human),100%
same,"kinase still bound, per cent of control",PLK3 (human),97%
same,"kinase still bound, per cent of control",MAPK13 (human),100%
same,"kinase still bound, per cent of control",RIOK3 (human),65%
same,"kinase still bound, per cent of control",NTRK2 (human),70%
same,"kinase still bound, per cent of control",LIMK1 (human),93%
same,"kinase still bound, per cent of control",TSSK1B (human),100%
same,"kinase still bound, per cent of control",[6],62%
same,"kinase still bound, per cent of control",HIPK4 (human),14%
same,"kinase still bound, per cent of control",[3],86%
same,"kinase still bound, per cent of control",STK16 (human),29%
same,"kinase still bound, per cent of control",CSF1R (human),87%
same,"kinase still bound, per cent of control",MAP2K3 (human),86%
same,"kinase still bound, per cent of control",BMP2K (human),58%
same,"kinase still bound, per cent of control",PRKCQ (human),24%
same,"kinase still bound, per cent of control",RPS6KA5 KD2 (human),100%
same,"kinase still bound, per cent of control",EPHA2 (human),100%
same,"kinase still bound, per cent of control",MAP4K4 (human),76%
same,"kinase still bound, per cent of control",PAK1 (human),80%
same,"kinase still bound, per cent of control",ULK3 (human),100%
same,"kinase still bound, per cent of control",ERBB3 (human),57%
same,"kinase still bound, per cent of control",MAPK4 (human),100%
same,"kinase still bound, per cent of control",RIOK1 (human),79%
same,"kinase still bound, per cent of control",MERTK (human),100%
same,"kinase still bound, per cent of control",RPS6KA5 KD1 (human),98%
same,"kinase still bound, per cent of control",PDGFRB (human),82%
same,"kinase still bound, per cent of control",PTK6 (human),100%
same,"kinase still bound, per cent of control",MAP3K2 (human),100%
same,"kinase still bound, per cent of control",MAP2K1 (human),100%
same,"kinase still bound, per cent of control",LTK (human),100%
same,"kinase still bound, per cent of control",CSK (human),100%
same,"kinase still bound, per cent of control",CAMK2A (human),36%
same,"kinase still bound, per cent of control",[4],96%
same,"kinase still bound, per cent of control",GRK7 (human),51%
same,"kinase still bound, per cent of control",NUAK2 (human),100%
same,"kinase still bound, per cent of control",[5],100%
same,"kinase still bound, per cent of control",KIT (human),79%
same,"kinase still bound, per cent of control",ERN1 (human),100%
